Results from patent US20140194484A1, “Method of Treating Cachexia and Sarcopenia” (priority 2012, published 2014).
“Also recorded” adds a separate entry of the source.

Tests used:
[1] = tested on: pre-clinical models of cancer cachexia; assay: pre-clinical models of cancer cachexia; type: in vivo
[2] = tested on: patients with cachexia related to late stage colorectal cancer (CRC) or non-small cell lung cancer (NSCLC); type: in vivo, human
Procedure: An international multicentre, randomised, double blind, placebo controlled clinical trial was conducted with three parallel treatment groups with dose escalation within each group. Male and female patients aged between 25 to 80 years of age with cachexia related to underlying progressive or recurrent late stage colorectal cancer (CRC) or non-small cell lung cancer (NSCLC) were treated for 16 weeks with either S-pindolol or placebo. All patients received standard of care chemotherapy, radiotherapy and supportive care throughout the study at the discretion of their treating physician.
After provision of written informed consent, patients were assessed for eligibility at screening visits occurring from days -8 to -1. All eligible patients with written informed consent were given a set of performance tests [stair climbing power (SCP), hand grip strength (HGS), short performance battery test (SPBT) and the six minute walk test (SMWT)] and receive a 7 day course of placebo (1 tablet two times per day). Patients able to adequately complete the performance tests and with at least 80% compliance after 7 days (tablet count: at least […]) were then randomised on Day 0 to one of three treatment groups. All patients attended for visits on days 7, 14, 21, 28, (each +/−1 day), 56, 84, 112, and 140 (each +/−7 days).
The dose of S-pindolol or placebo was escalated by the investigator in a blinded fashion as described below under the heading “Dose Escalation”. The maximum period of drug titration was 4 weeks and the minimum period was 2 weeks. The patients were required to attend study visits at 1 week intervals after the start of the titration phase until completion of dose escalation. The aim of dose escalation for all subjects is to reach the target dose of 8 tablets per day (4 tablets bd) or the maximum tolerated dose for a particular patient within the first 4 week period. Dose titration was achieved by varying the number of tablets taken from bottle 2. This was done such that patients will be randomised to receive either placebo, 2.5 mg S-pindolol twice daily, 5 mg S-pindolol twice daily, 7.5 mg S-pindolol twice daily, or 10 mg S-pindolol twice daily according to tolerance of the study drug.
• S-pindolol or placebo was administered over a 16 week period. The treatment regimens for the study are summarised below. • At regular monitoring visits, a study monitor checked that all code-break envelopes remained intact.
• Product was taken orally with food as prescribed two times daily
A SMWT was conducted on days 0, 28, 56, 84 and 112. The SMWT was conducted as described by Paul L Enright (Respiratory Care, August 2003 Vol 48 No 8)^12. A straight, level and even area at least 20 meter long and 2 meters wide was marked out at each investigational site and used for the SMWT for all subjects at each time point. Identical chairs were placed at each end of the 20 meter track.
The SCP test was conducted on days 0, 28, 56, 84 and 112. The SCP test was modified from that described by Bean et al (Arch Phys Med Rehabil Vol 88, May 2007) to account for the different stairway configurations at the investigational sites.
A HGS test was conducted on days 0, 28, 56, 84 and 112. The HGS test was modified from that described by Bassey (1990; NIH, 1990). A standard handgrip dynamometer (provided by Sponsor) that can be adjusted for hand size was used at all sites. Both hands were alternately measured in triplicate, followed by a fourth attempt on the dominant hand only. After an explanation the subject squeezed the handle as forcefully as possible for a few seconds and then released. Subjects were encouraged verbally using a standard script and the best score (in kilograms) of the dominant hand recorded in the CRF.
DEXA was performed at selected DEXA scan centres on days at day -1, 56 and 112.
The maximum period of drug titration was 4 weeks and the minimum period was 2 weeks. […]

[3] = compared with other β blockers studied
[4] = high dose (10 mg bd), ITT population, DEXA

In the case of `CC(C)NC[C@H](O)COc1cccc2[nH]ccc12` [S-pindolol], the “benefit compared to placebo and racemic pindolol (FIG. 4)” value ([1]; FIG. 4) is reported as “particularly beneficial”, the “effects on aspects of cancer cachexia” value [1, 3] is reported as “significant effects on all aspects” and the impact upon survival [1, 3] is reported as “greatest impact upon survival”. For the same compound, the “efficacy compared with racemic pindolol” value ([1]; dose for dose basis, treatment of cachexia) was “superior efficacy to the racemic parent material; also recorded: better effects than racemic pindolol”, the “Six minute walk test change” value ([2]; 2.5 and 10 mg bd vs placebo) was “trend towards dose response” and the “Stair climbing power change” value ([2]; 2.5 and 10 mg bd vs placebo) was “trend towards dose response”. The “Hand Grip Strength change, efficacy compared to placebo” value ([2]; high dose (10 mg bd), ITT population) was “statistically significant”, the “Absolute weight change (primary endpoint), efficacy compared to placebo” value ([2]; high dose (10 mg bd), ITT population, 16 weeks) was “statistically significant” and the “Fat mass change, efficacy compared to placebo” value [2, 4] was “statistically significant”. For the same compound, the “Lean mass change, efficacy compared to placebo” value [2, 4] was “statistically significant” and the “survival, difference between arms (FIG. 7)” value ([2]; low dose, high dose MT-102 and placebo arms) was “No significant differences in survival”.
